From patent publication US9340555B2, “Compounds as tyrosine kinase modulators” (Allergan, Inc., priority 2009, dated 2016)

What was measured:
VEGFR1 = VEGFR1 (Homo sapiens (Human), UniProt P17948); assay: Enzymic VEGFR1; type: biochemical
[1] = test system: Rabbit Eye VEGF Permeability; assay: Rabbit Eye VEGF Permeability Model; type: in vivo
Text: Rabbit Eye VEGF Permeability Model
Assay used was detailed by Jeffrey Edelman, etc in Exp. Eye. Res. 80 (2005), Pg 249-258.

VEGFR2 = VEGFR2 (Homo sapiens (Human), UniProt P35968); assay: VEGF Stimulated Ca++ Signal In Vitro (Cellular VEGFR2, FLIPR); type: cell-based; settings: HUVEC, VEGF stimulation (5 ng/mL), intracellular calcium
[2] = biological target: human VEGF receptor (VEGFR-2) (Homo sapiens (Human), UniProt P35968); assay: VEGFR2 Kinase Assay (Enzymic VEGFR2); type: biochemical; settings: His-VEGFR-2 cytoplasmic domain, 3.6 µM ATP
Protocol: VEGFR2 Kinase Assay The cytoplasmic domain of the human VEGF receptor (VEGFR-2) was expressed as a Histidine-tagged fusion protein following infection of insect cells using an His engineered baculovirus. […] Kinase assays were performed in 96 well microtiter plates that were coated overnight with 30 µg of poly-Glu-[…]:1) in 10 mM Phosphate Buffered Saline (PBS), pH 7.2-7.4. The plates were incubated with 1% BSA and then washed four times with PBS prior to starting the reaction. […] Reactions were initiated by the addition 0.5 ng of purified protein. Following a ten minute incubation at 25° C., the reactions were washed four times with PBS containing 0.05% Tween-20. 100 µl of a monoclonal anti-phosphotyrosine antibody-peroxidase conjugate was diluted 1:10000 in PBS-Tween-20 and added to the wells for 30 minutes. Following four washes with PBS-Tween-20, 100 µl of 0-phenylenediamine Dihydrochloride in Phosphate-citrate buffer, containing urea hydrogen peroxide, was added to the wells for 7 minutes as a colorimetric substrate for the peroxidase. […] IC50 values for compound inhibition were calculated directly from graphs of optical density (arbitrary units) versus compound concentration following subtraction of blank values.

PDGFRβ = PDGFRβ (Homo sapiens (Human), UniProt P09619); assay: Enzymic PDGFRβ; type: biochemical
PDGFRβ, sequence (P09619 33-1106, species assumed): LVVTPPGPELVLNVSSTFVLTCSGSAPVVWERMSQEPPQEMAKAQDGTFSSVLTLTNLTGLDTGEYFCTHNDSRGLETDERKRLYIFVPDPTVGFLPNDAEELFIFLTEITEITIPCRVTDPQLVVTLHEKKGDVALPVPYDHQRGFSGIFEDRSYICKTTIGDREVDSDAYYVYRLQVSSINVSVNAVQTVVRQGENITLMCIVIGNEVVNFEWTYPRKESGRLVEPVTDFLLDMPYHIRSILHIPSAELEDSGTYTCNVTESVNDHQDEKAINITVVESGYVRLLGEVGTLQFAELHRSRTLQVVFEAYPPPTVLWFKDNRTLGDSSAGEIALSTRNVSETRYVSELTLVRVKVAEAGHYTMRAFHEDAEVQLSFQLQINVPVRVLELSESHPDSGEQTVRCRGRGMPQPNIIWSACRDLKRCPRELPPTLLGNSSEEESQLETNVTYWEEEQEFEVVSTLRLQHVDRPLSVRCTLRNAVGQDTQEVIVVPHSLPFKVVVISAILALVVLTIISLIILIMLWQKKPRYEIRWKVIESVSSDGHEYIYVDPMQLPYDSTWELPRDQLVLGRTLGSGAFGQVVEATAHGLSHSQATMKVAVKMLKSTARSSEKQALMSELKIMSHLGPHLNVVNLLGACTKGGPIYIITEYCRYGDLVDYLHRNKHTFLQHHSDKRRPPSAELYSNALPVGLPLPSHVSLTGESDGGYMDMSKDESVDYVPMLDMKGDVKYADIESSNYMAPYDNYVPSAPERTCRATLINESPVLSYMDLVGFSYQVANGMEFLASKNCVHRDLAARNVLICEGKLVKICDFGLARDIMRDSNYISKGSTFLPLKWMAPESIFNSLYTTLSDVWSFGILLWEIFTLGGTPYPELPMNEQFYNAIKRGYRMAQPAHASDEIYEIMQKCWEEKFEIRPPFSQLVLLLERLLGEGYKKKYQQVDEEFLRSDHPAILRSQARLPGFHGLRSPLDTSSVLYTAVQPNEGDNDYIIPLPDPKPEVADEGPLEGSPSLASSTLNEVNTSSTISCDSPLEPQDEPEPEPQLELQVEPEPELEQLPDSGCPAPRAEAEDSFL

human VEGF receptor (VEGFR-2), sequence (P35968 786-1356): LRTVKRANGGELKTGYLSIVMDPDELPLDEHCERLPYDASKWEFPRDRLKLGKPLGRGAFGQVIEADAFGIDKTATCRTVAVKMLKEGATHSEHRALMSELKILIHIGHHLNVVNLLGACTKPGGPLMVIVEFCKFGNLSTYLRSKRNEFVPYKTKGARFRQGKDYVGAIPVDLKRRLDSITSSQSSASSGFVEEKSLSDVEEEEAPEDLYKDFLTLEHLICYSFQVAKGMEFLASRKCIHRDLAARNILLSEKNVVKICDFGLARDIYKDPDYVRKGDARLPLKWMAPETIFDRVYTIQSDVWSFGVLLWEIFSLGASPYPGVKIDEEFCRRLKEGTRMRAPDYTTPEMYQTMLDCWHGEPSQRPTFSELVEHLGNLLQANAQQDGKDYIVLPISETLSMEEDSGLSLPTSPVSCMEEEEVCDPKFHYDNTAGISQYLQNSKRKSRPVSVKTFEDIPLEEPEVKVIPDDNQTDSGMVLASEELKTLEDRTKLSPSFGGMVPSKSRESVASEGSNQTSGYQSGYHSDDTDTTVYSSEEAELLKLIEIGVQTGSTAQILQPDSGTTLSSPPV
VEGFR1, sequence (P17948 27-1338, species assumed): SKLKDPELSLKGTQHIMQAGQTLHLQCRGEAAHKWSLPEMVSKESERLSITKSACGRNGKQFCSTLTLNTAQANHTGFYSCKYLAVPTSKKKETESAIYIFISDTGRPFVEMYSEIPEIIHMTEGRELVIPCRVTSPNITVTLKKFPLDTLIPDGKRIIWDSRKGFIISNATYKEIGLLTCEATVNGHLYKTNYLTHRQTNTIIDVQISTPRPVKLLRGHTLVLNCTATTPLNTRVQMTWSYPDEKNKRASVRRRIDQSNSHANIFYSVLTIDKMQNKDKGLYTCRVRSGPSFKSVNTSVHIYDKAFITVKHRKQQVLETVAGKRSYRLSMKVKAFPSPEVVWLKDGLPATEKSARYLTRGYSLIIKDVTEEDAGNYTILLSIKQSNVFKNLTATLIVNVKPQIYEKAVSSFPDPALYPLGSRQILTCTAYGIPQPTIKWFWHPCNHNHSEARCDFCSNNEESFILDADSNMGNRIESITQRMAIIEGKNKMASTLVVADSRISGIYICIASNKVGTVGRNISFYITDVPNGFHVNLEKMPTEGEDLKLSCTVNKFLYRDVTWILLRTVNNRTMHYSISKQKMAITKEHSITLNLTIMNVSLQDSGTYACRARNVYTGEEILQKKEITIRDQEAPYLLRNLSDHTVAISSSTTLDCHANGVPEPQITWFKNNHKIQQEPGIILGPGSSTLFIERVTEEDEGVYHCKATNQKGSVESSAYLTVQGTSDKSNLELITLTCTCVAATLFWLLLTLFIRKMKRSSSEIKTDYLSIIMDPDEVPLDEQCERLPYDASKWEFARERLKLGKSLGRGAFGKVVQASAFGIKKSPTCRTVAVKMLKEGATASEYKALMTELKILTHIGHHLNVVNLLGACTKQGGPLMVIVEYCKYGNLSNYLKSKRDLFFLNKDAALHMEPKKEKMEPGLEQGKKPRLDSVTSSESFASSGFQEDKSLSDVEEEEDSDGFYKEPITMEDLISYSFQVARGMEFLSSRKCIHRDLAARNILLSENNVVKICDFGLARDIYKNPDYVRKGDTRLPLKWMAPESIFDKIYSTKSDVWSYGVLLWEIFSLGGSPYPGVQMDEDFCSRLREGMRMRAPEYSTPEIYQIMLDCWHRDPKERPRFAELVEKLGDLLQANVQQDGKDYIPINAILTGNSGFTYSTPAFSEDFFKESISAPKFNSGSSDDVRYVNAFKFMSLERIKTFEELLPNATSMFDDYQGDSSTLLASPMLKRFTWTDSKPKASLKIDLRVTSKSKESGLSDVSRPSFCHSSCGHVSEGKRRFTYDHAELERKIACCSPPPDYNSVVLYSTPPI
VEGFR2, sequence (P35968 20-1356): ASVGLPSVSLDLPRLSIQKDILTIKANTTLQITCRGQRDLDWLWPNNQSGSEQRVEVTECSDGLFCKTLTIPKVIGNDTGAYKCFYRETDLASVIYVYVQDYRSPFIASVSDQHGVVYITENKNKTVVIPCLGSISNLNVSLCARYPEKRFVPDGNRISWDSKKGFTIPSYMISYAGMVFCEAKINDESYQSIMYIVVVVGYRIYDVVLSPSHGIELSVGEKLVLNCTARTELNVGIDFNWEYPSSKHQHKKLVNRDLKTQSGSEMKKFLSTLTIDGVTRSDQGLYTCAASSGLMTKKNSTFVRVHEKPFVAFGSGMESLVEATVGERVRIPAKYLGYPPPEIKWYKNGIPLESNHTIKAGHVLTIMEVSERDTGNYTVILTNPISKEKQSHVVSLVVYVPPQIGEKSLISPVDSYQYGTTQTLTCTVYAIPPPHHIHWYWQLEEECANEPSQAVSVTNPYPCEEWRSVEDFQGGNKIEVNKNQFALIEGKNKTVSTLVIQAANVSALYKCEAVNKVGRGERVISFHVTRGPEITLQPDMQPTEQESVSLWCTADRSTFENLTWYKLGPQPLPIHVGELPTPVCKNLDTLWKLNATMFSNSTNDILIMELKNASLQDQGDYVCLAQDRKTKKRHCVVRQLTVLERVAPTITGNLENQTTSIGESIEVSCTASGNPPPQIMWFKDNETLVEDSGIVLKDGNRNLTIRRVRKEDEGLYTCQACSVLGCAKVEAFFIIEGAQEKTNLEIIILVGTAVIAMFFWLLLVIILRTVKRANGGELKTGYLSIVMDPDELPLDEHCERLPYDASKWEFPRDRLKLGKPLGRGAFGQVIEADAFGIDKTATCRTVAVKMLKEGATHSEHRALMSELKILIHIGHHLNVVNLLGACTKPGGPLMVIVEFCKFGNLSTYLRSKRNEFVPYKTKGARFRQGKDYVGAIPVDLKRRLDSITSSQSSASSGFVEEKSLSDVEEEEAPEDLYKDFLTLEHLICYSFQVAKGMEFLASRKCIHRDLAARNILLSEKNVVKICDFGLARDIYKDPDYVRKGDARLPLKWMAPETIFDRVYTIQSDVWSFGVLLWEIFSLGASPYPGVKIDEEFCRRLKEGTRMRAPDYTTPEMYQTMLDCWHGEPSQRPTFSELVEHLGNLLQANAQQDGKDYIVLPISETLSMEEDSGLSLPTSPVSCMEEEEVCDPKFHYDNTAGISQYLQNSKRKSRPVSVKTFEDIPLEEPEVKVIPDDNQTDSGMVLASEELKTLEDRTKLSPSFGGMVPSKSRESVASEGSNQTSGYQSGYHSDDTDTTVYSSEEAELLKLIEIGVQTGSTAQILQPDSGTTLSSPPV

Structure (SMILES)	IC50 (VEGFR1)	In Vivo Rabbit Eye VEGF Permeability [1]	IC50 (VEGFR2)	IC50 [2]	IC50 (PDGFRβ)
Cc1ccc(F)c(NC(=O)Nc2ccc(Oc3ccnc4cc(C(=O)O)sc34)cc2)c1 [Compound F2, 7-[4-({[(2-Fluoro-5-methylphenyl)amino]carbonyl}amino)phenoxy]thieno[3,2-b]pyridine-2-carboxylic acid]	16 nM	efficacious	29 nM	20 nM	–
Cc1ccc(F)c(NC(=O)Nc2ccc(Oc3ccnc4cc(C(=O)NCCCc5nn[nH]n5)sc34)cc2)c1 [Example 12, 7-[4-({[(2-fluoro-5-methylphenyl)amino]carbonyl}amino)phenoxy]-N-[3-(2H-tetrazol-5-yl)propyl]thieno[3,2-b]pyridine-2-carboxamide]	4 nM	–	126 nM	3 nM	20 nM
Cc1ccc(F)c(NC(=O)Nc2ccc(Oc3ccnc4cc(C(=O)NCCc5nn[nH]n5)sc34)cc2)c1 [Example 13, 7-[4-({[(2-fluoro-5-methylphenyl)amino]carbonyl}amino)phenoxy]-N-[2-(2H-tetrazol-5-yl)ethyl]thieno[3,2-b]pyridine-2-carboxamide]	10 nM	–	97 nM	6 nM	19 nM
CCOC(=O)CN1CCN(CCCNC(=O)c2cc3nccc(Oc4ccc(NC(=O)Nc5cc(C)ccc5F)cc4)c3s2)CC1 [Example 14, ethyl (4-{3-[({7-[4-({[(2-fluoro-5-methylphenyl)amino]carbonyl}amino)phenoxy]thieno[3,2-b]pyridin-2-yl}carbonyl)amino]propyl}piperazin-1-yl)acetate]	5 nM	–	34 nM	4 nM	13 nM
Cc1ccc(F)c(NC(=O)Nc2ccc(Oc3ccnc4cc(C(=O)NCCCN5CCCC(CO)C5)sc34)cc2)c1 (centres unmarked) [Example 15, 7-[4-({[(2-fluoro-5-methylphenyl)amino]carbonyl}amino)phenoxy]-N-{3-[3-(hydroxymethyl)piperidin-1-yl]propyl}thieno[3,2-b]pyridine-2-carboxamide]	3 nM	–	39 nM	3 nM	10 nM
COC(=O)CNCCCNC(=O)c1cc2nccc(Oc3ccc(NC(=O)Nc4cc(C)ccc4F)cc3)c2s1 [Example 18, methyl ({3-[({7-[4-({[(2-fluoro-5-methylphenyl)amino]carbonyl}amino)phenoxy]thieno[3,2-b]pyridin-2-yl}carbonyl)amino]propyl}amino)acetate]	6 nM	Efficacious	0.8 nM	3 nM	11 nM
COC(=O)CN(CCCNC(=O)c1cc2nccc(Oc3ccc(NC(=O)Nc4cc(C)ccc4F)cc3)c2s1)CC(=O)OC [Example 19, dimethyl 2,2′-({3-[({7-[4-({[(2-fluoro-5-methylphenyl)amino]carbonyl}amino)phenoxy]thieno[3,2-b]pyridin-2-yl}carbonyl)amino]propyl}imino)diacetate]	9 nM	–	0.3 nM	4 nM	14 nM
CCOC(=O)N1CCN(CCNC(=O)c2cc3nccc(Oc4ccc(NC(=O)Nc5cc(C)ccc5F)c(F)c4)c3s2)CC1 [Example 23, ethyl 4-{2-[({7-[3-fluoro-4-({[(2-fluoro-5-methylphenyl)amino]carbonyl}amino)phenoxy]thieno[3,2-b]pyridin-2-yl}carbonyl)amino]ethyl}piperazine-1-carboxylate]	13 nM	–	9 nM	7 nM	14 nM
Cc1ccc(F)c(NC(=O)Nc2ccc(Oc3ccnc4cc(C(=O)NCCCN5CCC(O)CC5)sc34)cc2F)c1 [Example 38, 7-[3-fluoro-4-({[(2-fluoro-5-methylphenyl)amino]carbonyl}amino)phenoxy]-N-[3-(4-hydroxypiperidin-1-yl)propyl]thieno[3,2-b]pyridine-2-carboxamide]	8 nM	–	14 nM	7 nM	–
COC(=O)[C@@H]1C[C@@H](O)CN1CCCNC(=O)c1cc2nccc(Oc3ccc(NC(=O)Nc4cc(C)ccc4F)c(F)c3)c2s1 [Example 39, methyl (2S,4R)-1-{3-[({7-[3-fluoro-4-({[(2-fluoro-5-methylphenyl)amino]carbonyl}amino)phenoxy]thieno[3,2-b]pyridin-2-yl}carbonyl)amino]propyl}-4-hydroxypyrrolidine-2-carboxylate]	8 nM	–	2 nM	5 nM	–
CCNC(=O)[C@H](CCC(=O)O)NC(=O)c1cc2nccc(Oc3ccc(NC(=O)Nc4cc(C)ccc4F)c(F)c3)c2s1 [Example 46, (4S)-5-(ethylamino)-4-[({7-[3-fluoro-4-({[(2-fluoro-5-methylphenyl)amino]carbonyl}amino)phenoxy]thieno[3,2-b]pyridin-2-yl}carbonyl)amino]-5-oxopentanoic acid]	–	Efficacious	328 nM	19 nM	–
Cc1ccc(F)c(NC(=O)Nc2ccc(Oc3ccnc4cc(C(=O)NCCCN5CCC(C(=O)O)C5)sc34)cc2F)c1 (centres unmarked) [Example 50, 1-{3-[({7-[3-fluoro-4-({[(2-fluoro-5-methylphenyl)amino]carbonyl}amino)phenoxy]thieno[3,2-b]pyridin-2-yl}carbonyl)amino]propyl}pyrrolidine-3-carboxylic acid]	18 nM	–	80 nM	16 nM	–
Cc1ccc(F)c(NC(=O)Nc2ccc(Oc3ccnc4cc(C(=O)NCCCN5CCOCC5)sc34)cc2F)c1 [Example 55, 7-[3-fluoro-4-({[(2-fluoro-5-methylphenyl)amino]carbonyl}amino)phenoxy]-N-(3-morpholin-4-ylpropyl)thieno[3,2-b]pyridine-2-carboxamide]	7 nM	Efficacious	7 nM	11 nM	–
CCOC(=O)CCCNC(=O)c1cc2nccc(Oc3ccc(NC(=O)Nc4cc(C)ccc4F)c(F)c3)c2s1 [Example 57, ethyl 4-[({7-[3-fluoro-4-({[(2-fluoro-5-methylphenyl)amino]carbonyl}amino)phenoxy]thieno[3,2-b]pyridin-2-yl}carbonyl)amino]butanoate]	15 nM	–	1 nM	14 nM	–
Cc1ccc(F)c(NC(=O)Nc2ccc(Oc3ccnc4cc(C(=O)NCCCC(=O)O)sc34)cc2)c1 [Example 65, 4-[({7-[4-({[(2-fluoro-5-methylphenyl)amino]carbonyl}amino)phenoxy]thieno[3,2-b]pyridin-2-yl}carbonyl)amino]butanoic acid]	7 nM	–	2 nM	12 nM	–
CCN(CC)CCNC(=O)c1cc2nccc(Oc3ccc(NC(=O)Nc4cc(C)ccc4F)cc3)c2s1 [Example 69, N-[2-(diethylamino)ethyl]-7-[4-({[(2-fluoro-5-methylphenyl)amino]carbonyl}amino)phenoxy]thieno[3,2-b]pyridine-2-carboxamide]	5 nM	–	11 nM	4 nM	13 nM
